Where a name gives a salt, the structure may show the parent alone.
How the values were obtained:
human TRPV4 = target: T1, human TRPV4 (Homo sapiens, UniProt Q9HBA0); experiment: Fluorometric cell-based Ca2+ flux assay, HEK-293 cells stably overexpressing human TRPV4; conditions: for IC50: HEK-293 stably overexpressing human TRPV4, agonist GSK1016790A 30 nM
T1 construct: expressed in transfected cells
Method in brief: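 HEK-293 cells stably overexpressing human TRPV4, Fluo 4-loaded, pre-incubated 30 min at 37° C with compound, then stimulated with 30 nM GSK1016790A (final). Max ΔF/s over 1 min, media-corrected, expressed relative to no-antagonist control; IC50 from ≥8 concentrations, ≥3 replicates.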

human TRPA1 = target: T2, human TRPA1 (Homo sapiens, UniProt O75762); experiment: Selectivity Ca2+ flux assay, TRPA1 stably over-expressed in HEK-293 cells; assay type: cell-based; conditions: agonist 2,4-ditert butylphenol (50 μM)
T2 construct: expressed in transfected cells
T2 sequence (O75762 whole entry): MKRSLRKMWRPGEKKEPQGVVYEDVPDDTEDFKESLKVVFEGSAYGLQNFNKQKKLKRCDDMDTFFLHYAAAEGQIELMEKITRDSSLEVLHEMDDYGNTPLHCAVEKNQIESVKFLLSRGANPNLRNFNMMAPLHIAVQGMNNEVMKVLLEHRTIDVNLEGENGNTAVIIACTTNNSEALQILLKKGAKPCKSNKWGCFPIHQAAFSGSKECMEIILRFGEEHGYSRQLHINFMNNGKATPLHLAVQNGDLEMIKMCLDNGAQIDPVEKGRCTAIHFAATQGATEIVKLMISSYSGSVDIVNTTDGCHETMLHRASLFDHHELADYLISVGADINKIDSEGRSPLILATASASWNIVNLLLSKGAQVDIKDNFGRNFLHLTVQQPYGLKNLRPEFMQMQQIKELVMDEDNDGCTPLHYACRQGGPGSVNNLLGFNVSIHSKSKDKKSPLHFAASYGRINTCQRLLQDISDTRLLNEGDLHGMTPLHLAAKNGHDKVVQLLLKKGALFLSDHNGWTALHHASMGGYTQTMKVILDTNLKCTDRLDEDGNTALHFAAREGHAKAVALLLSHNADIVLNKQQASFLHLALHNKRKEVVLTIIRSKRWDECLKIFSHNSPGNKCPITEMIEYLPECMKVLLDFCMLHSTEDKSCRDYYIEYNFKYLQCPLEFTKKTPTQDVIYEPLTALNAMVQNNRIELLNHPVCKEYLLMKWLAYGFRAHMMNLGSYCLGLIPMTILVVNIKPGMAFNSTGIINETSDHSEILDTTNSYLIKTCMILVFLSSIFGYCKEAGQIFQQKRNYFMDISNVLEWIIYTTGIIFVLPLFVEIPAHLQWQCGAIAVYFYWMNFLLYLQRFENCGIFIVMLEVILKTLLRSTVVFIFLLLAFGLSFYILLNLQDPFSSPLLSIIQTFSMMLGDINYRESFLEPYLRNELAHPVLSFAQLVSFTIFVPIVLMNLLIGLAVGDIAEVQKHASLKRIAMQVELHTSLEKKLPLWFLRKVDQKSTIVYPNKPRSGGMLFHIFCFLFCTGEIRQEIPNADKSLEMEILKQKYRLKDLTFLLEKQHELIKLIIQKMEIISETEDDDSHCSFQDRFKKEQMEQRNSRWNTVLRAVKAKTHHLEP
Protocol: (§1) To determine selectivity of the various test compounds for TRPV4, select compounds with activity in the TRPV4 fluorometric cell-based Ca^2+ flux assays were also tested for inhibition of human TRPA1 stably over-expressed in HEK-293 cells, TRPM8 stably over-expressed in HEK-293 cells, TRPV3 stably over-expressed in HEK-293 cells, and TRPV1 stably overexpressed in human lung epithelial (BEAS-2B) cells. The assays were conducted substantially as described above for HEK-293 cells that stably overexpress TRPV4, although for TRPV1, the BEAS-2B cells were maintained in LHC-9 media containing Geneticin (300 μg/mL) and were loaded with Fluo-4AM at room temperature. The agonist for TRPA1 was 2,4-ditert butylphenol (50 μM), for TRPM8 was icilin (50 μM), for TRPV3 was carvacrol (300 μM), and for TRPV1 was nonivamide (5 μM). All other aspects of the assay described above were the same.

TRPM8 = target: T3, TRPM8 (Homo sapiens, UniProt Q7Z2W7); experiment: Selectivity Ca2+ flux assay, TRPM8 stably over-expressed in HEK-293 cells; assay type: cell-based; conditions: agonist icilin (50 μM)
T3 construct: expressed in transfected cells
T3 sequence (Q7Z2W7 whole entry): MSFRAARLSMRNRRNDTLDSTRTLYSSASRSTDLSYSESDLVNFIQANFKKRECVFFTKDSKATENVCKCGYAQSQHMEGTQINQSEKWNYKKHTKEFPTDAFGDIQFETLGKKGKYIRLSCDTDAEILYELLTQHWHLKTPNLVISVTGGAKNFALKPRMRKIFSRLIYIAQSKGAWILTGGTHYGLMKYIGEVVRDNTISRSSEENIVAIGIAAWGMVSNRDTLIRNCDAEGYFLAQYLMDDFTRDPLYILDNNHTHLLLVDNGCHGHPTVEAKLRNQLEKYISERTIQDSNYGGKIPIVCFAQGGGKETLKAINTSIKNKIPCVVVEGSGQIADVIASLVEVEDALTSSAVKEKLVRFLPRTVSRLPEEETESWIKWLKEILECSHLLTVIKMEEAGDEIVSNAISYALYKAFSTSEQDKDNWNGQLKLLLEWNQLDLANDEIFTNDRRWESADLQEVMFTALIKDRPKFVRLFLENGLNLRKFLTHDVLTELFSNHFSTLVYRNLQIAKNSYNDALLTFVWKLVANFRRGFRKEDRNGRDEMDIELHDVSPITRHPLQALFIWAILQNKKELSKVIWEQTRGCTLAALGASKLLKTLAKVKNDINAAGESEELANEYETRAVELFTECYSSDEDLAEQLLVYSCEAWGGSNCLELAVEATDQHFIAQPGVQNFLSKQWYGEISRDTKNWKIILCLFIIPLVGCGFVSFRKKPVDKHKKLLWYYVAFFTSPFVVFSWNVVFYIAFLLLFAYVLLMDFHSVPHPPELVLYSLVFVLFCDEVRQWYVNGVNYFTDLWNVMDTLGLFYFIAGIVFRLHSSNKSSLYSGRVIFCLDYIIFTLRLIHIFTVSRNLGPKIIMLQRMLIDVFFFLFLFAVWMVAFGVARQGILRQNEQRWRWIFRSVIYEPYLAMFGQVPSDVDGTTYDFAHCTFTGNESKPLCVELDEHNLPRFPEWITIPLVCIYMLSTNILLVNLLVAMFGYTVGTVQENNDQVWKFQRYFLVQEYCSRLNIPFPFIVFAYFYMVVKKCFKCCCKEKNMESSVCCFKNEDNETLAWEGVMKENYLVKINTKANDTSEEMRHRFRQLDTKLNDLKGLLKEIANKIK
Protocol: as §1

TRPV3 = target: T4, TRPV3 (Homo sapiens, UniProt Q8NET8); experiment: Selectivity Ca2+ flux assay, TRPV3 stably over-expressed in HEK-293 cells; assay type: cell-based; conditions: agonist carvacrol (300 μM)
T4 construct: expressed in transfected cells
T4 sequence (Q8NET8 1-790): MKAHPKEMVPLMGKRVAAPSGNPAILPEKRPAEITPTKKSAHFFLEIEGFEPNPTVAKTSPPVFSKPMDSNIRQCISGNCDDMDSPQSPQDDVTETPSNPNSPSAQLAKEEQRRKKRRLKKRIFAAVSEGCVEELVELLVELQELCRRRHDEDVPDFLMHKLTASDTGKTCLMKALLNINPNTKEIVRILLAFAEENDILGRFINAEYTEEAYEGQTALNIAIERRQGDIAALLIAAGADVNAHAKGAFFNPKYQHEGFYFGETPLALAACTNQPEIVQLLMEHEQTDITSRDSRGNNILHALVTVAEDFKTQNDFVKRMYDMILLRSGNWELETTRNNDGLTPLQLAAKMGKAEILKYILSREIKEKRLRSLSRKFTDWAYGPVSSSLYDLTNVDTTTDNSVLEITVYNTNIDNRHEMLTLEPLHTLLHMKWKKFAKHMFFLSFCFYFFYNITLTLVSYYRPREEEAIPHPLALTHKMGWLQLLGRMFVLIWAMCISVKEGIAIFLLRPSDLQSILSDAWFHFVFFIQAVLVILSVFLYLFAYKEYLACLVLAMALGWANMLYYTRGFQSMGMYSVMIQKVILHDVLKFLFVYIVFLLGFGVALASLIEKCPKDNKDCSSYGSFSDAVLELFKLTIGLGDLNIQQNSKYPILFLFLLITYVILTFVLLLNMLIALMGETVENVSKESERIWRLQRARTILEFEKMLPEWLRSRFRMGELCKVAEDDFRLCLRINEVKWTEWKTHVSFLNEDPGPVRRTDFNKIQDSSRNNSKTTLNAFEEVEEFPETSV
Protocol: as §1

TRPV1 = target: T5, TRPV1 (Homo sapiens, UniProt Q8NER1); experiment: Selectivity Ca2+ flux assay, TRPV1 stably overexpressed in human lung epithelial (BEAS-2B) cells; assay type: cell-based; conditions: agonist nonivamide (5 μM)
T5 construct: expressed in transfected cells
T5 sequence (Q8NER1 whole entry): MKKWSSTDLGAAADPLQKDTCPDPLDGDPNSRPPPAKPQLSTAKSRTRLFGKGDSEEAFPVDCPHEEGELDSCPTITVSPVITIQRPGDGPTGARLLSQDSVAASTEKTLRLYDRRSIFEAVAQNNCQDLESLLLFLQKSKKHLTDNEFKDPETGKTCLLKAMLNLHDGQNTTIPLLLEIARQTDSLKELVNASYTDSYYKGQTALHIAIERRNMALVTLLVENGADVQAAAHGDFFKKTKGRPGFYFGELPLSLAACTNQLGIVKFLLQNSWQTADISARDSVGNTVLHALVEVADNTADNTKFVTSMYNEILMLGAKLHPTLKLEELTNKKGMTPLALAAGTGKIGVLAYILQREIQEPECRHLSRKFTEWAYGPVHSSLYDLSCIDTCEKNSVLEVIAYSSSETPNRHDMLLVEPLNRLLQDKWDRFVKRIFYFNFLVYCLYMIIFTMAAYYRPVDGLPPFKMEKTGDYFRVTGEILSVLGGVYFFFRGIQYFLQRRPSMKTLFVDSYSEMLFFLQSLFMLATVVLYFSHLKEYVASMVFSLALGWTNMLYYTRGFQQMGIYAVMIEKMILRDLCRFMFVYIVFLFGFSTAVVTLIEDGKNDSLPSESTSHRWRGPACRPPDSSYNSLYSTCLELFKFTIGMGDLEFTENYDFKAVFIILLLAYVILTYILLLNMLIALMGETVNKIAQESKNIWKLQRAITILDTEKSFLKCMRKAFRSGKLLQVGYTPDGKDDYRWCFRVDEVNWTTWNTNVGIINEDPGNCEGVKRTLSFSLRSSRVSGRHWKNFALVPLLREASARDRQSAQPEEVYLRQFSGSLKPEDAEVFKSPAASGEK
Protocol: as §1

[1] = tested on: intraocular pressure (IOP); conditions: applied at 0.3-1.0 mM; Ryskamp et al., Sci Rep 2016; cited from earlier work
[2] = tested on: intraocular pressure (IOP); experiment: In vivo tonometric IOP assay in microbead mouse model of ocular hypertension
[3] = tested on: intraocular pressure (IOP); conditions: OAG-affected dogs; literature; cited from earlier work
[4] = tested on: intraocular pressure (IOP); experiment: In vivo tonometric IOP assay in microbead mouse model of ocular hypertension; conditions: FIG. 2 right panel; P<0.01 / P<0.001, two-way ANOVA
Protocol: FIG. 1 is a graph showing the effect that two concentrations of topical compound 11 (0.01% and 0.1%), 0.5% timolol, and control PBS had on IOP in the microbead (MB) mouse model of ocular hypertension (N=3 separate experiments, with 7-10 mice per experimental cohort). Error bars=±S.E.M. Ocular hypertension in the mouse model of primary open angle glaucoma (POAG) was induced with intracameral injection of polystyrene microbeads. Antagonist stock solutions (10 mM) were prepared in DMSO, the final concentrations were made in PBS diluted to <0.0001% DMSO.
FIG. 2 is a bar chart showing the cumulative data for pre-IOP elevation cohorts of mouse eyes (N≥3 separate experiments, with 7-10 mice per experimental cohort). Left panel: the IOP data are plotted as % of the control value of the timolol-treated eye cohort. Middle panel: MB injection elevated IOP in all experimental cohorts.
A tonometric assay was used to measured IOP changes in mice models of ocular hypertension over a period of weeks following topical application of the compounds.
To prepare the mice models of ocular hypertension, mice were anesthetized with an intraperitoneal (IP) injection of ketamine/xylazine (90 mg/10 mg/kg of body weight). Eye drops of 0.5% proparacaine hydrochloride with 1% tropicamide ophthalmic solution (Bausch & Lomb) were applied to numb and dilate the eyes of the mice. IOP was elevated in the ipsilateral eye by injecting 2 μl of polystyrene microbeads (7.8 μm FluoSpheres; Bangs Laboratories) with a Hamilton syringe into the anterior chamber over 60 seconds. The contralateral eye was injected with phosphate buffered saline (PBS).
A rebound tonometer was used to measure IOP at 1, 2, 6 and 10 hours post-injection after topical administration of Compounds 11 and 52 and timolol, a known medication for treatment of IOP associated with ocular hypertension and glaucoma. The IOP was determined from the means of 10 to 20 readings, following the protocol described in Ryskamp et al., Sci Rep 6:30583, 2016. […]

T1 sequence (Q9HBA0 whole entry): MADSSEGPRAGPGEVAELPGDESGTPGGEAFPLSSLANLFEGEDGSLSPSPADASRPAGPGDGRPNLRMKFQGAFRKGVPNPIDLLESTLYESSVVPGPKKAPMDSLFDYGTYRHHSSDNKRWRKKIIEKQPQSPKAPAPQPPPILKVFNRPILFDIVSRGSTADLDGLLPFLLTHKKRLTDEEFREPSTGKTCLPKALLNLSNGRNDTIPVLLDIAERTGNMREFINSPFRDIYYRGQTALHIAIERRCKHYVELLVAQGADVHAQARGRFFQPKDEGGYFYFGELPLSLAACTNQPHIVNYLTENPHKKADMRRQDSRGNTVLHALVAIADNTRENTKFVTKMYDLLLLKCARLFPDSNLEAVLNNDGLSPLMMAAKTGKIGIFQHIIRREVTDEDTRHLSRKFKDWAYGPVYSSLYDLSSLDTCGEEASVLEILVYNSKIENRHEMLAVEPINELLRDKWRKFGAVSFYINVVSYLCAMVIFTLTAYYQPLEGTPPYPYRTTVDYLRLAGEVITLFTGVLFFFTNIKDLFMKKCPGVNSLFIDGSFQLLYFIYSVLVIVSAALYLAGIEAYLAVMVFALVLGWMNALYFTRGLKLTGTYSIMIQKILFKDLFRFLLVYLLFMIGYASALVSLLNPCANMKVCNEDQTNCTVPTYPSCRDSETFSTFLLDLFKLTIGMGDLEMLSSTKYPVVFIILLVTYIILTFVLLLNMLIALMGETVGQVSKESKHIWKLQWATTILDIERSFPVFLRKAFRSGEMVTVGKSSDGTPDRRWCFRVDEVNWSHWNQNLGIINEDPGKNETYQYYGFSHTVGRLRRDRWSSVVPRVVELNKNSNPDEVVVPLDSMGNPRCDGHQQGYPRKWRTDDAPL

## CNCC1(COc2ccc(C#N)c(F)c2)CN(S(=O)(=O)c2ccc(Cl)cc2Cl)C1 [Compound 16, 4-((1-((2,4-Dichlorophenyl)sulfonyl)-3-((methylamino)methyl)azetidin-3-yl)methoxy)-2-fluorobenzonitrile hydrochloride]
Human TRPV4
  IC50: 0.6 nM
Human TRPV4; comparison of IC50 values
  selectivity for TRPV4 versus TRPA1, TRPM8, TRPV3 and TRPV1: substantially more selective for TRPV4
Human TRPA1
  IC50: 20700 nM
TRPM8
  IC50: 17800 nM
TRPV3
  IC50: > 100000 nM
TRPV1
  IC50: 6000 nM

## N#Cc1ccc(OCC2(CNCCO)CN(S(=O)(=O)c3ccc(Cl)cc3Cl)C2)cc1F [Compound 17, 4-((1-((2,4-Dichlorophenyl)sulfonyl)-3-(((2-hydroxyethyl)amino)methyl)azetidin-3-yl)methoxy)-2-fluorobenzonitrile]
Human TRPV4
  IC50: 0.2 to 0.6 nM
Human TRPA1
  IC50: > 35500 nM
TRPM8
  IC50: 25400 nM
TRPV3
  IC50: > 50000 nM
TRPV1
  IC50: 5300 nM

## COc1cc(C#N)c(F)cc1OCC1(CO)CN(S(=O)(=O)c2ccccc2C#N)C1 [Compound 109, 4-((1-((2-Cyanophenyl)sulfonyl)-3-(hydroxymethyl)azetidin-3-yl)methoxy)-2-fluoro-5-methoxybenzonitrile]
Human TRPV4
  IC50: 940 nM

## COc1cc(C#N)c(F)cc1OCC1(CO)CN(S(=O)(=O)c2ccc(C)cc2C#N)C1 [Compound 110, 4-((1-((2-Cyano-4-methylphenyl)sulfonyl)-3-(hydroxymethyl)azetidin-3-yl)methoxy)-2-fluoro-5-methoxybenzonitrile]
Human TRPV4
  IC50: 241 nM

## N#Cc1ccc(OCC2(CNC3COC3)CN(S(=O)(=O)c3ccccc3C#N)C2)cc1F [Compound 111, 4-((1-((2-Cyanophenyl)sulfonyl)-3-((oxetan-3-ylamino)methyl)azetidin-3-yl)methoxy)-2-fluorobenzonitrile]
Human TRPV4
  IC50: 47.6 nM

## N#Cc1ccc(OCC2(CN[C@H]3CC[C@H](O)CC3)CN(S(=O)(=O)c3ccccc3C#N)C2)cc1F [Compound 112, 4-((1-((2-Cyanophenyl)sulfonyl)-3-(((trans-4-hydroxycyclohexyl)amino)methyl)azetidin-3-yl)methoxy)-2-fluorobenzonitrile]
Human TRPV4
  IC50: 0.29 nM

## N#Cc1ccc(OCC2(CN[C@H]3C[C@H](O)C3)CN(S(=O)(=O)c3ccccc3C#N)C2)cc1F [Compound 113, 4-((1-((2-Cyanophenyl)sulfonyl)-3-(((trans-3-hydroxycyclobutyl)amino)methyl)azetidin-3-yl)methoxy)-2-fluorobenzonitrile]
Human TRPV4
  IC50: 0.79 nM

## CCOC(=O)CCNCC1(COc2ccc(C#N)c(F)c2)CN(S(=O)(=O)c2ccccc2C#N)C1 [Compound 114, Ethyl 3-(((3-((4-cyano-3-fluorophenoxy)methyl)-1-((2-cyanophenyl)sulfonyl)azetidin-3-yl)methyl)amino)propanoate]
Human TRPV4
  IC50: 6.45 nM

## N#Cc1ccc(OCC2(CNCC(O)CO)CN(S(=O)(=O)c3ccccc3C#N)C2)cc1F (centres unmarked) [Compound 115, 4-((1-((2-Cyanophenyl)sulfonyl)-3-(((2,3-dihydroxypropyl)amino)methyl)azetidin-3-yl)methoxy)-2-fluorobenzonitrile]
Human TRPV4
  IC50: 1.98 nM

## N#Cc1ccc(OCC2(CNC3CCOCC3)CN(S(=O)(=O)c3ccccc3C#N)C2)cc1F [Compound 116, 4-((1-((2-Cyanophenyl)sulfonyl)-3-(((tetrahydro-2H-pyran-4-yl)amino)methyl)azetidin-3-yl)methoxy)-2-fluorobenzonitrile]
Human TRPV4
  IC50: 0.41 nM

## C[C@H](O)CNCC1(COc2ccc(C#N)c(F)c2)CN(S(=O)(=O)c2ccccc2C#N)C1 [Compound 117, (S)-4-((1-((2-Cyanophenyl)sulfonyl)-3-(((2-hydroxypropyl)amino)methyl)azetidin-3-yl)methoxy)-2-fluorobenzonitrile]
Human TRPV4
  IC50: 1.6 nM

## Cc1c(C(=O)Nc2cccc(C(F)(F)F)c2)cc(-c2ccccc2)n1CCCN1CCOCC1 [HC067047, reference compound]
[1]
  IOP in hypertensive mouse eyes: lowered IOP
[2]; FIG. 2 right panel, intraperitoneal
  IOP levels in MB-treated eyes, intraperitoneal injection: significantly lowered IOP levels

## CCN[C@H]1C[C@H](C)S(=O)(=O)c2sc(S(N)(=O)=O)cc21 [dorzolamide HCl]
[3]
  IOP lowering: 3.8-5.0 mm Hg

## CC(C)(C)NC[C@H](O)COc1nsnc1N1CCOCC1 [timolol, reference compound]
[4]
  IOP levels in MB-treated eyes, topical application: significantly lowered IOP levels
[2]; mouse model of ocular hypertension, compounds 1 μM and 10 μM, timolol 0.5%, FIG. 1
  IOP after topical administration: lowered the IOP
[2]; mouse model of ocular hypertension, topical, compounds 1 μM and 10 μM, timolol 0.5%
  protection of RGCs: protected RGCs

Reference: US20230026696A1, “TRPV4 RECEPTOR LIGANDS” (UNIVERSITY OF UTAH RESEARCH FOUNDATION, priority 2019, published 2023)
